Source: patent US20240238242A1, “EGCG buccal tablet and use thereof” (priority 2023, published 2024)
“And” between values parts separate entries of the source, which are not always exact repeats. Identical values can stand only once. Like-named read-outs stand apart in the source and are kept apart here.

Columns and labels:
[1] = system: Influenza A H1N1 virus (H1N1-PR8); type: cell-based; details: for inactivation efficiency against the virus: single experiment; for average inactivation efficiency against virus: three experiments
[2] = rats, intragastric decaffeinated green tea (DGT) 200 mg/kg; cited from earlier work
[3] = 1 mM EGCG, PR8 virus, 5 minutes
[4] = 5 mM EGCG, PR8 virus, 5 minutes

Question: Which “CPE test (virus replication in the cell wells)” value ([1]; 1 mM EGCG + PR8 virus, co-incubated 5 minutes, first experiment, dilution factor 10^5, wells 1-10) does the source give for `O=C(O[C@@H]1Cc2c(O)cc(O)cc2O[C@@H]1c1cc(O)c(O)c(O)c1)c1cc(O)c(O)c(O)c1` [EGCG, Epigallocatechin gallate] here?
Answer: The value was “+”.

Question: What about the “CPE test (virus replication in the cell wells)” value ([1]; 1 mM EGCG + virus, PR8, 1 minute, first experiment, dilution factor 10^3, wells 1-10) of the same compound?
Answer: Its value is “+”.

Question: What about the “CPE test (virus replication in the cell wells)” value ([1]; 1 mM EGCG + virus, PR8, 1 minute, first experiment, dilution factor 10^4, wells 1-10) of the same compound?
Answer: The value was “+”.

Question: What about the “CPE test (virus replication in the cell wells)” value ([1]; 1 mM EGCG + virus, PR8, 1 minute, first experiment, dilution factor 10^5, wells 1-10) of the same compound?
Answer: The value was “+”.

Question: What about the “CPE test (virus replication in the cell wells)” value ([1]; 1 mM EGCG + virus, PR8, 1 minute, first experiment, dilution factor 10^6, wells 1-10) of the same compound?
Answer: Its value is “+ and −”.

Question: And the “CPE test (virus replication in the cell wells)” value ([1]; 1 mM EGCG + virus, PR8, 1 minute, first experiment, dilution factor 10^7, wells 1-10)?
Answer: Its value is “−”.

Question: And the “CPE test (virus replication in the cell wells)” value ([1]; 1 mM EGCG + virus, PR8, 1 minute, first experiment, dilution factor 10^8, wells 1-10)?
Answer: The value was “−”.

Question: And the “CPE test (virus replication in the cell wells)” value ([1]; 1 mM EGCG + virus, PR8, 1 minute, second experiment, dilution factor 10^1, wells 1-10)?
Answer: The value was “+”.

Question: And the “CPE test (virus replication in the cell wells)” value ([1]; 1 mM EGCG + virus, PR8, 1 minute, second experiment, dilution factor 10^2, wells 1-10)?
Answer: The value was “+”.

Question: What about the “CPE test (virus replication in the cell wells)” value ([1]; 1 mM EGCG + virus, PR8, 1 minute, second experiment, dilution factor 10^3, wells 1-10) of the same compound?
Answer: Its value is “+”.

Question: And the “CPE test (virus replication in the cell wells)” value ([1]; 1 mM EGCG + virus, PR8, 1 minute, second experiment, dilution factor 10^4, wells 1-10)?
Answer: Its value is “+”.

Question: What about the “CPE test (virus replication in the cell wells)” value ([1]; 1 mM EGCG + virus, PR8, 1 minute, second experiment, dilution factor 10^5, wells 1-10) of the same compound?
Answer: Its value is “+”.

Question: And the “CPE test (virus replication in the cell wells)” value ([1]; 1 mM EGCG + virus, PR8, 1 minute, second experiment, dilution factor 10^6, wells 1-10)?
Answer: Its value is “− and +”.

Question: What about the “CPE test (virus replication in the cell wells)” value ([1]; 1 mM EGCG + virus, PR8, 1 minute, second experiment, dilution factor 10^7, wells 1-10) of the same compound?
Answer: Its value is “−”.

Question: What about the “CPE test (virus replication in the cell wells)” value ([1]; 1 mM EGCG + virus, PR8, 1 minute, second experiment, dilution factor 10^8, wells 1-10) of the same compound?
Answer: The value was “−”.

Question: And the “inactivation efficiency against the virus” value ([1]; 1 mM EGCG, PR8 virus, 1 minute)?
Answer: The value was 87.41% and 80.05%.

Question: What about the “average inactivation efficiency against virus” value (“average inactivation efficiency” below) ([1]; 1 mM EGCG, PR8 virus, 1 minute) of the same compound?
Answer: The value was 82.50%.

Question: And the “inactivation efficiency against the virus” value [1, 3]?
Answer: The value was 87.41% and 84.15% and 90.00%.

Question: What about the “average inactivation efficiency” value [1, 3] of the same compound?
Answer: Its value is 87.19%.

Question: What about the “CPE test, virus replication in cell wells (wells 1-10)” value (“CPE test, virus replication” below) ([1]; 5 mM EGCG + PR8 virus, 5 minutes, third experiment, dilution factor 10^4) of the same compound?
Answer: Its value is “+ and −”.

Question: What about the “CPE test, virus replication” value ([1]; 5 mM EGCG + PR8 virus, 5 minutes, third experiment, dilution factor 10^5) of the same compound?
Answer: The value was “− and +”.

Question: And the “CPE test, virus replication” value ([1]; 5 mM EGCG + PR8 virus, 5 minutes, third experiment, dilution factor 10^6)?
Answer: Its value is “−”.

Question: And the “CPE test, virus replication” value ([1]; 5 mM EGCG + PR8 virus, 5 minutes, third experiment, dilution factor 10^7)?
Answer: Its value is “−”.

Question: And the “CPE test, virus replication” value ([1]; 5 mM EGCG + PR8 virus, 5 minutes, third experiment, dilution factor 10^8)?
Answer: Its value is “−”.

Question: What about the “CPE test (virus replication in the cell wells)” value ([1]; 5 mM EGCG + PR8 virus, co-incubated 1 minute, third experiment, dilution factor 10^4, wells 1-10) of the same compound?
Answer: Its value is “+”.

Question: What about the “CPE test (virus replication in the cell wells)” value ([1]; 5 mM EGCG + PR8 virus, co-incubated 1 minute, third experiment, dilution factor 10^5, wells 1-10) of the same compound?
Answer: The value was “+ and −”.

Question: And the “CPE test (virus replication in the cell wells)” value ([1]; 5 mM EGCG + PR8 virus, co-incubated 1 minute, third experiment, dilution factor 10^6, wells 1-10)?
Answer: The value was “− and +”.

Question: And the “CPE test (virus replication in the cell wells)” value ([1]; 5 mM EGCG + PR8 virus, co-incubated 1 minute, third experiment, dilution factor 10^7, wells 1-10)?
Answer: The value was “−”.

Question: What about the “CPE test (virus replication in the cell wells)” value ([1]; 5 mM EGCG + PR8 virus, co-incubated 1 minute, third experiment, dilution factor 10^8, wells 1-10) of the same compound?
Answer: Its value is “−”.

Question: And the “CPE test (virus replication in the cell wells)” value ([1]; 5 mM EGCG + PR8 virus, co-incubated 5 minutes, first experiment, dilution factor 10^4, wells 1-10)?
Answer: The value was “−”.

Question: What about the “CPE test (virus replication in the cell wells)” value ([1]; 5 mM EGCG + PR8 virus, co-incubated 5 minutes, first experiment, dilution factor 10^5, wells 1-10) of the same compound?
Answer: Its value is “−”.

Question: What about the “CPE test (virus replication in the cell wells)” value ([1]; 5 mM EGCG + PR8 virus, co-incubated 5 minutes, first experiment, dilution factor 10^6, wells 1-10) of the same compound?
Answer: The value was “−”.

Question: What about the “CPE test (virus replication in the cell wells)” value ([1]; 5 mM EGCG + PR8 virus, co-incubated 5 minutes, first experiment, dilution factor 10^7, wells 1-10) of the same compound?
Answer: Its value is “−”.

Question: And the “CPE test (virus replication in the cell wells)” value ([1]; 5 mM EGCG + PR8 virus, co-incubated 5 minutes, first experiment, dilution factor 10^8, wells 1-10)?
Answer: Its value is “−”.

Question: And the “CPE test (virus replication in the cell wells)” value ([1]; 5 mM EGCG + virus, PR8, 1 minute, first experiment, dilution factor 10^4, wells 1-10)?
Answer: The value was “+ and −”.

Question: What about the “CPE test (virus replication in the cell wells)” value ([1]; 5 mM EGCG + virus, PR8, 1 minute, first experiment, dilution factor 10^5, wells 1-10) of the same compound?
Answer: The value was “− and +”.

Question: What about the “CPE test (virus replication in the cell wells)” value ([1]; 5 mM EGCG + virus, PR8, 1 minute, first experiment, dilution factor 10^6, wells 1-10) of the same compound?
Answer: Its value is “−”.

Question: And the “CPE test (virus replication in the cell wells)” value ([1]; 5 mM EGCG + virus, PR8, 1 minute, first experiment, dilution factor 10^7, wells 1-10)?
Answer: Its value is “−”.

Question: And the “CPE test (virus replication in the cell wells)” value ([1]; 5 mM EGCG + virus, PR8, 1 minute, first experiment, dilution factor 10^8, wells 1-10)?
Answer: Its value is “−”.

Question: What about the “CPE test (virus replication in the cell wells)” value ([1]; 5 mM EGCG + virus, PR8, 1 minute, second experiment, dilution factor 10^4, wells 1-10) of the same compound?
Answer: The value was “− and +”.

Question: What about the “CPE test (virus replication in the cell wells)” value ([1]; 5 mM EGCG + virus, PR8, 1 minute, second experiment, dilution factor 10^5, wells 1-10) of the same compound?
Answer: Its value is “− and +”.

Question: And the “CPE test (virus replication in the cell wells)” value ([1]; 5 mM EGCG + virus, PR8, 1 minute, second experiment, dilution factor 10^6, wells 1-10)?
Answer: The value was “−”.

Question: What about the “CPE test (virus replication in the cell wells)” value ([1]; 5 mM EGCG + virus, PR8, 1 minute, second experiment, dilution factor 10^7, wells 1-10) of the same compound?
Answer: Its value is “−”.

Question: What about the “CPE test (virus replication in the cell wells)” value ([1]; 5 mM EGCG + virus, PR8, 1 minute, second experiment, dilution factor 10^8, wells 1-10) of the same compound?
Answer: The value was “−”.

Question: And the “inactivation efficiency against the virus” value ([1]; 5 mM EGCG, PR8 virus, 1 minute)?
Answer: The value was 99.50% and 99.60% and 93.69%.

Question: And the “average inactivation efficiency” value ([1]; 5 mM EGCG, PR8 virus, 1 minute)?
Answer: Its value is 97.60%.

Question: And the “residual virus titer of EGCG+virus group (Karber method)” value [1, 4]?
Answer: The value was 10^4 TCID50/50 μL.

Question: What about the “inactivation efficiency against the virus” value [1, 4] of the same compound?
Answer: The value was 99.92% and 99.75% and 99.60%.

Question: And the “average inactivation efficiency” value [1, 4]?
Answer: The value was 99.76%.

Question: And the “bioavailability of EGCG” value [2]?
Answer: The value was 0.1%.
